One compound from ChEMBL document CHEMBL5727696, “Tetrahydroisoquinoline derived PRMT5-inhibitors” (2020) can be followed below.

The nature of this assay: Revised Biochemical Assay: Full-length PRMT5 enzyme (NCBI Reference sequence NP_006100.2) was co-expressed with Hiss-MEP50 in insect cells and purified via Nickel immobilized metal affinity and gel filtration chromatography (“the enzyme”).The 6 μL reactions are run in Greiner brand black 384-well low volume assay plates. All reactions contained assay buffer (phosphate buffered saline, 0.01% (v/v) Tween-20, 0.01% (w/v) albumin from chicken egg white, 1 mM Dithiothreitol, 1 μM peptide substrate, 1 μM S-Adenosyl methionine, and 15 ng/reaction enzyme, with the enzyme being omitted from negative control reactions. Compounds were added in a volume of 100 nL from dilution series prepared in DMSO, positive and negative control reactions receiving the same volume DMSO without compound. The plates were sealed with adhesive seals and incubated for 4 hours at 37 degree Celsius. Reaction progress was measured using the Transcreener™ EPIGEN methyltransferase assay (BellBrook Labs, Madison, Wis.) as recommended by the manufacturer. To each reaction 2 μL detection mix were added, containing coupling enzymes, fluorescence polarisation tracer, and AMP antibody. Plates were incubated for 90 minutes before being read on a PerkinElmer EnVision plate reader in fluorescence polarisation mode.

pIC50: −log10 of the molar value.

For the compound `N#Cc1ccc(C(=O)NCCC(O)CN2CCc3ccccc3C2)cc1` (stereo unspecified), the negative logarithm of the IC50 (pIC50) was 5.40.
